Measured values reported in ChEMBL document CHEMBL1649265, “Antimicrobial susceptibilities of Mycoplasma genitalium strains examined by broth dilution and quantitative PCR” (2009).
Converted amounts (≈) assume the structure as drawn.

Assays:
Type in all cases: functional
[1] = tested on: Mycoplasma genitalium; test: Antibacterial activity against Mycoplasma genitalium by broth dilution method; conditions: Mycoplasmoides genitalium; for MIC50: read-out: MIC50; for MIC90: read-out: MIC90
[2] = tested on: Mycoplasma genitalium; test: Antibacterial activity against Mycoplasma genitalium by quantitative TaqMan PCR method; conditions: Mycoplasmoides genitalium
[3] = tested on: Mycoplasma genitalium; test: Antibacterial activity against Mycoplasma genitalium G37 by broth dilution method; conditions: Mycoplasmoides genitalium, read-out: MIC
[4] = tested on: Mycoplasma genitalium; test: Antibacterial activity against Mycoplasma genitalium M30 by broth dilution method; conditions: Mycoplasmoides genitalium, read-out: MIC
[5] = tested on: Mycoplasma genitalium; test: Antibacterial activity against Mycoplasma genitalium R32 by broth dilution method; conditions: Mycoplasmoides genitalium, read-out: MIC
[6] = tested on: Mycoplasma genitalium; test: Antibacterial activity against Mycoplasma genitalium TW10-5G by broth dilution method; conditions: Mycoplasmoides genitalium, read-out: MIC
[7] = tested on: Mycoplasma genitalium; test: Antibacterial activity against Mycoplasma genitalium TW10-6G by broth dilution method; conditions: Mycoplasmoides genitalium, read-out: MIC
[8] = tested on: Mycoplasma genitalium; test: Antibacterial activity against Mycoplasma genitalium TW48-5G by broth dilution method; conditions: Mycoplasmoides genitalium, read-out: MIC
[9] = tested on: Mycoplasma genitalium; test: Antibacterial activity against Mycoplasma genitalium UTMB-10G by broth dilution method; conditions: Mycoplasmoides genitalium, read-out: MIC
[10] = tested on: Mycoplasma genitalium; test: Antibacterial activity against Mycoplasma genitalium M2282 by broth dilution method; conditions: Mycoplasmoides genitalium
[11] = tested on: Mycoplasma genitalium; test: Antibacterial activity against Mycoplasma genitalium M2300 by broth dilution method; conditions: Mycoplasmoides genitalium
[12] = tested on: Mycoplasma genitalium; test: Antibacterial activity against Mycoplasma genitalium M2321 by broth dilution method; conditions: Mycoplasmoides genitalium
[13] = tested on: Mycoplasma genitalium; test: Antibacterial activity against Mycoplasma genitalium M2341 by broth dilution method; conditions: Mycoplasmoides genitalium
[14] = tested on: Mycoplasma genitalium; test: Antibacterial activity against Mycoplasma genitalium M6257 by broth dilution method; conditions: Mycoplasmoides genitalium
[15] = tested on: Mycoplasma genitalium; test: Antibacterial activity against Mycoplasma genitalium M6280 by broth dilution method; conditions: Mycoplasmoides genitalium
[16] = tested on: Mycoplasma genitalium; test: Antibacterial activity against Mycoplasma genitalium M6285 by broth dilution method; conditions: Mycoplasmoides genitalium
[17] = tested on: Mycoplasma genitalium; test: Antibacterial activity against Mycoplasma genitalium M6286 by broth dilution method; conditions: Mycoplasmoides genitalium
[18] = tested on: Mycoplasma genitalium; test: Antibacterial activity against Mycoplasma genitalium M6328 by broth dilution method; conditions: Mycoplasmoides genitalium
[19] = tested on: Mycoplasma genitalium; test: Antibacterial activity against Mycoplasma genitalium M6090 by broth dilution method; conditions: Mycoplasmoides genitalium
[20] = tested on: Mycoplasma genitalium; test: Antibacterial activity against Mycoplasma genitalium M6151 by broth dilution method; conditions: Mycoplasmoides genitalium
[21] = tested on: Mycoplasma genitalium; test: Antibacterial activity against Mycoplasma genitalium M6282 by broth dilution method; conditions: Mycoplasmoides genitalium
[22] = tested on: Mycoplasma genitalium; test: Antibacterial activity against Mycoplasma genitalium M6283 by broth dilution method; conditions: Mycoplasmoides genitalium
[23] = tested on: Mycoplasma genitalium; test: Antibacterial activity against Mycoplasma genitalium M6284 by broth dilution method; conditions: Mycoplasmoides genitalium
[24] = tested on: Mycoplasma genitalium; test: Antibacterial activity against Mycoplasma genitalium M6287 by broth dilution method; conditions: Mycoplasmoides genitalium

Row | MIC50 [1] [µg/mL] | MIC90 [1] [µg/mL] | MIC [3] [µg/mL] | MIC [4] [µg/mL] | MIC [5] [µg/mL] | MIC [6] [µg/mL] | MIC [7] [µg/mL] | MIC [8] [µg/mL] | MIC [9] [µg/mL] | MIC [10] [µg/mL] | MIC [11] [µg/mL] | MIC [12] [µg/mL] | MIC [13] [µg/mL] | MIC [14] [µg/mL] | MIC [15] [µg/mL] | MIC [16] [µg/mL] | MIC [17] [µg/mL] | MIC [18] [µg/mL] | MIC [19] [µg/mL] | MIC [20] [µg/mL] | SMILES | further results
1 | 0.125 (≈ 0.273 µM) | 0.25 (≈ 0.546 µM) | 0.031 (≈ 0.0678 µM) | 0.031 (≈ 0.0678 µM) | 0.031 (≈ 0.0678 µM) | 0.031 (≈ 0.0678 µM) | 0.031 (≈ 0.0678 µM) | 0.031 (≈ 0.0678 µM) | 0.031 (≈ 0.0678 µM) | 0.063 (≈ 0.138 µM) | 0.063 (≈ 0.138 µM) | 0.063 (≈ 0.138 µM) | 0.063 (≈ 0.138 µM) | 0.063 (≈ 0.138 µM) | 0.063 (≈ 0.138 µM) | 0.063 (≈ 0.138 µM) | 0.063 (≈ 0.138 µM) | 0.063 (≈ 0.138 µM) | 0.063 (≈ 0.138 µM) | 0.063 (≈ 0.138 µM) | CN(C)c1ccc(O)c2c1C[C@H]1C[C@H]3[C@H](N(C)C)C(O)=C(C(N)=O)C(=O)[C@@]3(O)C(O)=C1C2=O [MINOCYCLINE] | MIC [21]: 0.063 µg/mL (≈ 0.138 µM); MIC [22]: 0.063 µg/mL (≈ 0.138 µM); MIC [23]: 0.063 µg/mL (≈ 0.138 µM); MIC [24]: 0.063 µg/mL (≈ 0.138 µM)
2 | 0.063 (≈ 0.157 µM) | 0.125 (≈ 0.311 µM) | 0.063 (≈ 0.157 µM) | 0.063 (≈ 0.157 µM) | 0.063 (≈ 0.157 µM) | 0.063 (≈ 0.157 µM) | 0.063 (≈ 0.157 µM) | 0.063 (≈ 0.157 µM) | 0.063 (≈ 0.157 µM) | 0.016 (≈ 0.0399 µM) | 0.016 (≈ 0.0399 µM) | 0.016 (≈ 0.0399 µM) | 0.016 (≈ 0.0399 µM) | 0.016 (≈ 0.0399 µM) | 0.016 (≈ 0.0399 µM) | 0.016 (≈ 0.0399 µM) | 0.016 (≈ 0.0399 µM) | 0.016 (≈ 0.0399 µM) | 0.016 (≈ 0.0399 µM) | 0.016 (≈ 0.0399 µM) | COc1c(N2C[C@@H]3CCCN[C@@H]3C2)c(F)cc2c(=O)c(C(=O)O)cn(C3CC3)c12 [MOXIFLOXACIN] | MIC50 [2]: 0.063 µg/mL (≈ 0.157 µM); MIC90 [2]: 0.125 µg/mL (≈ 0.311 µM); MIC [21]: 0.016 µg/mL (≈ 0.0399 µM); MIC [22]: 0.016 µg/mL (≈ 0.0399 µM); MIC [23]: 0.016 µg/mL (≈ 0.0399 µM); MIC [24]: 0.016 µg/mL (≈ 0.0399 µM)
3 | 0.125 (≈ 0.281 µM) | 0.5 (≈ 1.13 µM) | 0.063 (≈ 0.142 µM) | 0.063 (≈ 0.142 µM) | 0.063 (≈ 0.142 µM) | 0.063 (≈ 0.142 µM) | 0.063 (≈ 0.142 µM) | 0.063 (≈ 0.142 µM) | 0.063 (≈ 0.142 µM) | 0.063 (≈ 0.142 µM) | 0.063 (≈ 0.142 µM) | 0.063 (≈ 0.142 µM) | 0.063 (≈ 0.142 µM) | 0.063 (≈ 0.142 µM) | 0.063 (≈ 0.142 µM) | 0.063 (≈ 0.142 µM) | 0.063 (≈ 0.142 µM) | 0.063 (≈ 0.142 µM) | 0.063 (≈ 0.142 µM) | 0.063 (≈ 0.142 µM) | CN(C)[C@@H]1C(O)=C(C(N)=O)C(=O)[C@@]2(O)C(O)=C3C(=O)c4c(O)cccc4[C@@](C)(O)[C@H]3C[C@@H]12 [TETRACYCLINE] | MIC50 [2]: 0.5 µg/mL (≈ 1.13 µM); MIC90 [2]: 2 µg/mL (≈ 4.5 µM); MIC [21]: 0.063 µg/mL (≈ 0.142 µM); MIC [22]: 0.063 µg/mL (≈ 0.142 µM); MIC [23]: 0.063 µg/mL (≈ 0.142 µM); MIC [24]: 0.063 µg/mL (≈ 0.142 µM)

More lines, now with the values behind:

Row | SMILES | MIC50 [1] [µg/mL] | MIC90 [1] [µg/mL] | MIC [3] [µg/mL] | MIC [4] [µg/mL] | MIC [5] [µg/mL] | MIC [6] [µg/mL] | MIC [7] [µg/mL] | MIC [8] [µg/mL] | MIC [9] [µg/mL] | MIC [10] [µg/mL] | MIC [11] [µg/mL] | MIC [12] [µg/mL] | MIC [13] [µg/mL] | MIC [14] [µg/mL] | MIC [15] [µg/mL] | MIC [16] [µg/mL] | MIC [17] [µg/mL] | MIC [18] [µg/mL] | MIC [19] [µg/mL] | MIC [20] [µg/mL] | further results
4 | C[C@H]1COc2c(N3CCN(C)CC3)c(F)cc3c(=O)c(C(=O)O)cn1c23.C[C@H]1COc2c(N3CCN(C)CC3)c(F)cc3c(=O)c(C(=O)O)cn1c23.O [LEVOFLOXACIN] | 1 | 2 | 1 | 1 | 1 | 1 | 1 | 1 | 1 | 0.125 | 0.125 | 0.125 | 0.125 | 0.125 | 0.125 | 0.125 | 0.125 | 0.125 | 0.125 | 0.125 | MIC50 [2]: 1 µg/mL; MIC90 [2]: 4 µg/mL; MIC [21]: 0.125 µg/mL; MIC [22]: 0.125 µg/mL; MIC [23]: 0.125 µg/mL; MIC [24]: 0.125 µg/mL
5 | CCn1cc(C(=O)O)c(=O)c2cc(F)c(N3CCNCC3)cc21 [NORFLOXACIN] | 0.032 (≈ 0.1 µM) | 0.064 (≈ 0.2 µM) | 0.032 (≈ 0.1 µM) | 0.032 (≈ 0.1 µM) | 0.032 (≈ 0.1 µM) | 0.032 (≈ 0.1 µM) | 0.032 (≈ 0.1 µM) | 0.032 (≈ 0.1 µM) | 0.032 (≈ 0.1 µM) | 0.001 (≈ 0.00313 µM) | 0.001 (≈ 0.00313 µM) | 0.001 (≈ 0.00313 µM) | 0.001 (≈ 0.00313 µM) | 0.001 (≈ 0.00313 µM) | 0.001 (≈ 0.00313 µM) | 0.001 (≈ 0.00313 µM) | 0.001 (≈ 0.00313 µM) | 0.001 (≈ 0.00313 µM) | 0.001 (≈ 0.00313 µM) | 0.001 (≈ 0.00313 µM) | MIC50 [2]: ≥ 8 µg/mL; MIC90 [2]: ≥ 8 µg/mL; MIC [21]: 0.001 µg/mL (≈ 0.00313 µM); MIC [22]: 0.001 µg/mL (≈ 0.00313 µM); MIC [23]: 0.001 µg/mL (≈ 0.00313 µM); MIC [24]: 0.001 µg/mL (≈ 0.00313 µM)
6 | N[C@@H]1CN(c2c(F)cc3c(=O)c(C(=O)O)cn([C@@H]4C[C@@H]4F)c3c2Cl)CC12CC2 [SITAFLOXACIN ANHYDROUS] | 0.063 (≈ 0.154 µM) | 0.125 (≈ 0.305 µM) | 0.063 (≈ 0.154 µM) | 0.063 (≈ 0.154 µM) | 0.063 (≈ 0.154 µM) | 0.063 (≈ 0.154 µM) | 0.063 (≈ 0.154 µM) | 0.063 (≈ 0.154 µM) | 0.063 (≈ 0.154 µM) | 0.008 (≈ 0.0195 µM) | 0.008 (≈ 0.0195 µM) | 0.008 (≈ 0.0195 µM) | 0.008 (≈ 0.0195 µM) | 0.008 (≈ 0.0195 µM) | 0.008 (≈ 0.0195 µM) | 0.008 (≈ 0.0195 µM) | 0.008 (≈ 0.0195 µM) | 0.008 (≈ 0.0195 µM) | 0.008 (≈ 0.0195 µM) | 0.008 (≈ 0.0195 µM) | MIC50 [2]: 0.063 µg/mL (≈ 0.154 µM); MIC90 [2]: 0.125 µg/mL (≈ 0.305 µM); MIC [21]: 0.008 µg/mL (≈ 0.0195 µM); MIC [22]: 0.008 µg/mL (≈ 0.0195 µM); MIC [23]: 0.008 µg/mL (≈ 0.0195 µM); MIC [24]: 0.008 µg/mL (≈ 0.0195 µM)
